Results reported in patent publication US11414429B2, “Compound or pharmaceutically acceptable salt thereof” (RIKEN, priority 2016, dated 2022).
Where two headings read alike, the source gives them in different places.

Tests used:
tankyrase 2 (TNKS 2) = target: T1, tankyrase 2 (TNKS 2) (Homo sapiens, UniProt Q9H2K2); assay: Tankyrase inhibitory activity test (ELISA, self-polyADP ribosylation), tankyrase 2; assay type: biochemical; conditions: self-polyADP ribosylation
T1 construct: 613-1, 116aa; made in house; host or cells: cell-free protein synthesis system
Protocol: (§1) (Test Example 1) Tankyrase Inhibitory Activity Test
(§2) For each of the compounds obtained in Examples (the test target compounds), the tankyrase inhibitory activity (an inhibitory activity against tankyrase 1 (TNKS 1) and an inhibitory activity against tankyrase 2 (TNKS 2)) was evaluated by measuring the enzymatic activity of tankyrase 1 and the enzymatic activity of tankyrase 2 by the ELISA technique using self-polyADP ribosylation as an index. First, Flag-tag fusion tankyrase 1 (1,024-1,327aa, SAM+PARP) and tankyrase 2 (613-1, 116aa, ANK5+SAM+PARP) were each synthesized by a cell-free protein synthesis system and diluted with a Tris buffer (50 mM Tris-HCl (pH 8.0), 150 mM NaCl, 10% glycerol). Then, 50 μL of the diluted tankyrase 1 or tankyrase 2 was added to a plate on which the anti-FLAGM 2 monoclonal antibody was immobilized (Anti-FLAG high sensitivity M2 coated plate) (SIGMA Corporation), and was allowed to stand at 4° C. overnight. Thereafter, the plate was washed four times with a PBS buffer containing 0.1% Triton X-100 (PBST buffer).
(§3) Subsequently, the test target compound diluted with an assay buffer (50 mM Tris-HCl (pH 8.0), 4 mM MgCl2, 0.2 mM DTT) (using DMSO as a control) was added to each well of the plate and was allowed to stand at room temperature for 10 minutes. Thereafter, a biotin-labeled NAD solution (225 μM NAD, 25 μM 6-Biotin-17-NAD (Trevigen Inc.)) was added as a donor substrate and mixed with the resultant test target compound, and the reaction was allowed to proceed at 30° C. for 45 minutes. Instead of the biotin-labeled NAD solution, distilled water was added to blank wells. After the reaction, the plate was washed four times with the PBST buffer. Thereafter, HRP (horseradish peroxidase)-labeled streptavidin (Trevigen Inc.) diluted 1,000-fold with the PBS buffer was added to each well, and the reaction was allowed to proceed at room temperature for 20 minutes. After the plate was washed four times with the PBST buffer, a chemiluminescent substrate solution TACS-Sapphire (Trevigen Inc.) was added to each well and the reaction was allowed to proceed at room temperature for 20 minutes. Then, the chemiluminescence intensity was measured using a chemiluminescence measuring apparatus.
(§4) The residual enzyme activity in the presence of the test target compound was determined in accordance with the following formula. Based on the residual enzyme activity at multiple concentrations of the test target compound, an enzyme inhibition activity was calculated as a 50% inhibitory concentration (IC50 value) using data analysis software named Origin (LightStone Corp.).

[1] = tested on: human colorectal cancer cell line, COLO-320DM; assay: Cell proliferation inhibitory activity test (Celltiter-Glo Luminescent Cell Viability Assay); assay type: cell-based; conditions: COLO-320DM cells, 96 hours
Protocol: (Test Example 2) Cell Proliferation Inhibitory Activity Test
The cell proliferation inhibitory activity of the compound obtained in each of Examples against human colorectal cancer cell line, COLO-320DM was evaluated by Celltiter-Glo Luminescent Cell Viability Assay (Promega Corporation, G7573). The COLO-320 DM cells were cultured in a RPMI-1640 medium (Wako Pure Chemical Industries, Ltd., 189-02025) containing 10% fetal bovine serum and 2 mM of glutamine. The cultured cells were washed with PBS and then detached with trypsin/EDTA to prepare a cell solution containing 3×10^4 cells/mL.
Next, the cell solution was seeded in a 96 well microplate (Thermo/Nunc, 136101) in an amount of 70 μL/well and was cultured overnight under conditions at 37° C. with 5% CO2. On the next day, 10 μL/well of a solution in which the test target compound (DMSO solution) was diluted with the cell culture medium (a final DMSO concentration of 1%) was added and the reaction was allowed to proceed under conditions at 37° C. with 5% CO2 for 96 hours (a 1% DMSO solution was used as a control). Subsequently, 80 μL/well of Celltiter-Glo Luminescent Cell Viability Assay reagent (Promega Corporation, G7573) was added, followed by agitation for 2 minutes with a shaker under shielding with aluminum foil. Thereafter, the resultant solution was allowed to stand for reaction at room temperature for 10 minutes.
After that, the luminescent signal was measured with a luminometer (Biotech, Synergy). The cell proliferation inhibitory activity was evaluated by obtaining a percentage of a cell proliferation volume of each compound-added group with respect to a cell proliferation volume (100%) of a control group in which no test target component solution was added, and calculating a value of compound concentration (GI50) required to reduce the remaining cell volume to 50% of the remaining cell volume of the control. […] The results are shown in Tables 120 to 123 together with the results of the tankyrase inhibition activity test.

tankyrase 1 (TNKS 1) = target: T2, tankyrase 1 (TNKS 1) (Homo sapiens, UniProt O95271); assay: Tankyrase inhibitory activity test (ELISA, self-polyADP ribosylation), tankyrase 1; assay type: biochemical; conditions: self-polyADP ribosylation
T2 construct: 1,024-1,327aa; made in house; host or cells: cell-free protein synthesis system
Protocol: as §1, §2, §3, §4

[2] = ELISA, class symbols, read-out: TNKS2 (inhibitory activity against tankyrase 2, IC50 value)
[3] = class symbols, read-out: COLO-320 DM (cell proliferation inhibitory activity, GI50 value)
[4] = ELISA, class symbols, read-out: TNKS1 (inhibitory activity against tankyrase 1, IC50 value)
[5] = tankyrase 2, ELISA, read-out: TNKS2 inhibitory activity (IC50 class)
[6] = read-out: COLO-320 DM cell proliferation inhibitory activity (GI50 class)
[7] = tankyrase 1, ELISA, read-out: TNKS1 inhibitory activity (IC50 class)

T1 sequence (Q9H2K2 613-1166): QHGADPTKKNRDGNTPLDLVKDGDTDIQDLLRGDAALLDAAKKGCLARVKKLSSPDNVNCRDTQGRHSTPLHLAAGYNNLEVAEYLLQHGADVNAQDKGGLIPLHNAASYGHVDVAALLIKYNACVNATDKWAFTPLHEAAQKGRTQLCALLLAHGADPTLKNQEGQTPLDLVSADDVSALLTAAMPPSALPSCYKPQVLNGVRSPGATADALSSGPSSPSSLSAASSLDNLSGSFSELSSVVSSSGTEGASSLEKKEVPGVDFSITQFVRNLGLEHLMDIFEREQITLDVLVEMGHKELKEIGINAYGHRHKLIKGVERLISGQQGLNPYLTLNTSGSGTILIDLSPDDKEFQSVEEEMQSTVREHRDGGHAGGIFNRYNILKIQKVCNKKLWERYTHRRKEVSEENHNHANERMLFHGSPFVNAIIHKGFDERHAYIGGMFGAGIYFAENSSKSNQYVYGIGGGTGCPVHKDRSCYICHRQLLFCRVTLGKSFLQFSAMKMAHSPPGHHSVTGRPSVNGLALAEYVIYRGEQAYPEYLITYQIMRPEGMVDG
T2 sequence (O95271 1024-1327): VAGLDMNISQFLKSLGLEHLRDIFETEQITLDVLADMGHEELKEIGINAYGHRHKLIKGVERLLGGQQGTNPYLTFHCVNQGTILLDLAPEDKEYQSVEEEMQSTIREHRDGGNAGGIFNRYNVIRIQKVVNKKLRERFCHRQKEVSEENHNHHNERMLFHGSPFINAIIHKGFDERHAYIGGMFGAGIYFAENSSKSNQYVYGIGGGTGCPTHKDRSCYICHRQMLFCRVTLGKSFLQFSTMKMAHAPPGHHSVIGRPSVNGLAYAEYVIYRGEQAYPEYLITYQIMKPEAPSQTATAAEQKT

SMILES | IC50 (tankyrase 2 (TNKS 2); [2]) [nM] | GI50 [1, 3] [nM] | IC50 (tankyrase 1 (TNKS 1); [4]) [nM] | IC50 (tankyrase 2 (TNKS 2); [5]) [nM] | GI50 [1, 6] [nM] | IC50 (tankyrase 1 (TNKS 1); [7]) [nM]
O=C1N(Cc2cccnc2)c2cc(F)cc(F)c2C12CCN(c1nc3c(CO)cccc3c(=O)[nH]1)CC2 [Example 273, 4,6-difluoro-1′-[8-(hydroxymethyl)-4-oxo-3,4-dihydro-quinazolin-2-yl]-1-(pyridin-3-ylmethyl)-spiro[indoline-3,4′-piperidin]-2-one] | – | – | – | < 20 | 600 to 1000 | < 20
O=c1[nH]c(N2CCC3(CC2)CN(Cc2cccnc2)c2cc(Cl)ccc23)nc2c1CCCC2 [Example 218, 2-(6-chloro-1-(pyridin-3-ylmethyl)spiro [indoline-3,4′-piperidin]-1′-yl)-5,6,7,8-tetrahydro-quinazolin-4(3H)-one] | – | – | – | < 20 | 600 to 1000 | 20 to 200
CN1C(=O)C2(CCN(c3nc4c(c(=O)[nH]3)CCCC4)CC2)c2c(Cl)cc(-c3nc(C(=O)N4CCOCC4)co3)cc21 [Example 323, 4-chloro-1-methyl-6-[4-(morpholine-4-carbonyl)oxazole-2-yl]-1′-(4-oxo-3,4,5,6,7,8-hexa-hydroquinazoline-2-yl)spiro[indoline-3,4′-piperidin]-2-one] | – | – | – | < 20 | 600 to 1000 | < 20
O=C1N(Cc2cccnc2)c2cc(F)cc(F)c2C12CCN(c1nc3c(c(=O)[nH]1)CCCC3)CC2 [Example 333, 4,6-difluoro-1′-(4-oxo-3,4,5,6,7,8-hexahydro-quinazolin-2-yl)-1-(pyridin-3-ylmethyl) spiro[indoline-3,4′-piperidin]-2-one] | – | – | – | < 20 | 100 to 600 | < 20
Cc1cccc2c(=O)[nH]c(N3CCC4(CC3)CN(CCO)c3cc(F)cc(F)c34)nc12 [Example 258, 2-[4,6-di-fluoro-1-(2-hydroxy-ethyl)spiro-[indoline-3,4′-piperidin]-1′-yl]-8-methyl-quinazolin-4(3H)-one] | – | – | – | < 20 | 600 to 1000 | < 20
CN1CCCc2c1nc(N1CCC3(CC1)C(=O)N(C)c1c(C(N)=O)ccc(Cl)c13)[nH]c2=O [Example 330, 4-chloro-1-methyl-1′-(8-methyl-4-oxo-3,4,5,6,7,8-hexahydro-pyrido[2,3-d]-pyrimidin-2-yl)-2-oxospiro-[indoline-3,4′-piperidine]-7-carboxamide] | – | – | – | < 20 | 600 to 1000 | < 20
CN1C(=O)C2(CCN(c3nc4c(c(=O)[nH]3)CCCC4)CC2)c2c(Cl)cc(O)cc21 [Example 234, 4-chloro-6-hydroxy-1-methyl-1′-(4-oxo-3,4,5,6,7,8-hexahydro-quinazolin-2-yl)spiro [indoline-3,4′-piperidin]-2-one] | – | – | – | < 20 | 100 to 600 | < 20
O=c1[nH]c(N2CCC3(CC2)CN(Cc2cccc(F)c2)c2cc(F)cc(F)c23)nc2c1CCCC2 [Example 342, 2-[4,6-difluoro-1-(3-fluorobenzyl)spiro [indoline-3,4′-piperidin]-1′-yl]-5,6,7,8-tetrahy-droquinazolin-4(3H)-one] | – | – | – | < 20 | 600 to 1000 | 20 to 200
CN(C)CCOc1cc(F)c2c(c1)C(=O)OC21CCN(c2nc3c(c(=O)[nH]2)CCCN3C)CC1 [Example 7, 5-[2-(dimethylamino)ethoxy]-7-fluoro-1′-(8-methyl-4-oxo-3,4,5,6,7,8-hexahydropyrido[2,3-d]pyrimidin-2-yl)-3H-spiro[isobenzofuran-1,4′-piperidin]-3-one] | – | – | – | < 20 | 600 to 1000 | < 20

Second part, the molecule after the results:

IC50 (tankyrase 2 (TNKS 2); [2]) [nM] | GI50 [1, 3] [nM] | IC50 (tankyrase 1 (TNKS 1); [4]) [nM] | IC50 (tankyrase 2 (TNKS 2); [5]) [nM] | GI50 [1, 6] [nM] | IC50 (tankyrase 1 (TNKS 1); [7]) [nM] | SMILES
20 to 200 | 100 to 600 | 20 to 200 | – | – | – | CN1CCN(c2ccc(-c3cc(F)c4c(c3)C(=O)OC43CCN(c4nc5c(c(=O)[nH]4)CCCN5C)CC3)cc2)CC1 [Example 444, 4-fluoro-1′-(4-hy-droxy-8-methyl-6,7-dihydro-5H-pyrido [2,3-d]pyrimidin-2-yl)-6-[4-(4-meth-ylpiperazin-1-yl)phenyl]spiro[2-benzofuran-3,4′-piperidine]-1-one]
< 20 | 600 to 1000 | < 20 | – | – | – | CC1CN(c2cc(F)c3c(c2)C(=O)OC32CCN(c3nc4c(c(=O)[nH]3)CCCN4)CC2)CC(C)O1 (stereo not drawn) [Example 472, 6-(2,6-dimethylmorpholin-4-yl)-4-fluoro-1′-(4-hydroxy-5,6,7,8-tetrahydropyrido[2,3-d]pyrimidin-2-yl) spiro[2-benzofuran-3,4′-piperidin]-1-one]
< 20 | < 100 | 20 to 200 | – | – | – | CN1CCCc2c1nc(N1CCC3(CC1)C(=O)N(C)c1cc(N4CCC(C#N)CC4)cc(F)c13)[nH]c2=O [Example 467, 1-[4-fluoro-1-methyl-1′-(8-methyl-4-oxo-3,4,5,6,7,8-hexahydropyrido[2,3-]pyrimidin-2-yl)-2-oxospiro[indole-3,4′-piperidine]-6-yl]piperidine-4-carbonitrile]
< 20 | < 100 | 20 to 200 | – | – | – | COC(=O)N1CCN(c2cc(F)c3c(c2)N(C)C(=O)C32CCN(c3nc4c(c(=O)[nH]3)CCCN4C)CC2)CC1 [Example 462, methyl 4-[4-fluoro-1-methyl-1′-(8-methyl-4-oxo-3,4,5,6,7,8-hexahydropyrido[2,3-d]pyrimidin-2-yl)-2-oxospiro[indole-3,4′-piperidine]-6-yl]piperazine-1-carboxylate]
< 20 | 100 to 600 | 20 to 200 | – | – | – | COCCN1C(=O)C2(CCN(c3nc4c(c(=O)[nH]3)CCCN4C)CC2)c2c(F)cc(N3CCN(C)CC3)cc21 [Example 407, 4-fluoro-1-(2-methoxy-ethyl)-1′-(8-methyl-4-oxo-3,4,5,6,7,8-hexahydropyrido[2,3-d]pyrimidin-2-yl)-6-(4-methylpiperazin-1-yl) spiro[indoline-3,4′-piperidin]-2(1H)-one]
< 20 | 100 to 600 | < 20 | – | – | – | C[C@@H]1CN(c2cc(F)c3c(c2)N(C)C(=O)C32CCN(c3nc4c(c(=O)[nH]3)CCCN4C)CC2)C[C@H](C)N1 [Example 390, 6-(cis-3,5-dimethyl-piperazin-1-yl)-4-fluoro-1-methyl-1′-(8-methyl-4-oxo-3,4,5,6,7,8-hexahydropyrido [2,3-d]pyrimi-din-2-yl) spiro[indoline-3,4′-piperidin]-2(1H)-one]
– | – | – | < 20 | 100 to 600 | < 20 | CN1CCCc2c1nc(N1CCC3(CC1)C(=O)N(CCO)c1cc(OCCO)cc(F)c13)[nH]c2=O [Example 381, 4-fluoro-6-(2-hydroxy-thoxy)-1-(2-hydroxyethyl)-1′-(8-methyl-4-oxo-3,4,5,6,7,8-hexahydropyrido [2,3-d]pyrimidin-2-yl)spiro [indoline-3,4′-piperidin]-2-one]
